From patent US20100152434A1, “Protein Kinase-binding Nucleosides and Associated Methods” (priority 2007, published 2010)
Where two headings read alike, the source gives them in different places.

Columns and labels:
[1] = test system: COLO 205; assay: cells; conditions: Homo sapiens
[2] = test system: T-47D; assay: cells; conditions: Homo sapiens, T47D
[3] = test system: NCI-H522
[4] = test system: SF-268; assay: cells; conditions: Homo sapiens
[5] = test system: SK-MEL-2; assay: cells; conditions: Homo sapiens
[6] = test system: A549/ATCC
[7] = test system: SN12C; assay: cells; conditions: Homo sapiens
[8] = test system: UACC-257
[9] = test system: SF-295
[10] = test system: U251; assay: cells; conditions: Homo sapiens
[11] = test system: SK-MEL-2
[12] = test system: 788-0; conditions: 786-0
[13] = test system: OVCAR-8; assay: cells; conditions: Homo sapiens
[14] = test system: A498; assay: cells; conditions: Homo sapiens
[15] = test system: TK-10; assay: cells; conditions: Homo sapiens
[16] = test system: HCT-15
[17] = test system: UACC-257; assay: cells; conditions: Homo sapiens
[18] = test system: UO-31; assay: cells; conditions: Homo sapiens
[19] = test system: HCT-15; assay: cells; conditions: Homo sapiens
[20] = test system: CCRF-CEM; assay: cells; conditions: Homo sapiens
[21] = test system: MALME-3M; assay: cells; conditions: Homo sapiens
[22] = test system: CAKI-1
[23] = test system: HOP-62; conditions: HOP-62
[24] = test system: HOP-92
[25] = test system: SF-268
[26] = test system: NCI/ADR-RES; assay: cells; conditions: Homo sapiens
[27] = test system: UO-31
[28] = test system: UACC-62; assay: cells; conditions: Homo sapiens

Q: With `CNC(=O)NC[C@H]1O[C@@H](n2cnc3c(NC(=O)Nc4ccccc4)ncnc32)[C@H](O[Si](C)(C)C(C)(C)C)[C@@H]1CC(=O)N(C)OC` [Compound 13, 2′-O-(tert-Butyldimethylsilyl)-3′,5′-dideoxy-3′-[(N-methoxy-N-methylcarboxamido)methyl]-5′-[(N-methylcarbamoyl)amino]-N^6-(N-phenylcarbamoyl)adenosine] as the compound, how does the GI50 ([1]; COLO 205) read?
A: Its GI50 is 12.3 µM.

Q: What about the CC50 ([1]; COLO 205, read-out: LC50) of the same compound?
A: The CC50 was greater than 100 µM.

Q: And the GI50 [2]?
A: The GI50 was 13.9 µM.

Q: And the CC50 ([2]; read-out: LC50)?
A: Its CC50 is greater than 100 µM.

Q: What about the TGI [3] of the same compound?
A: Its TGI is greater than 1.00E−4 Molar.

Q: What about the “Percent Growth” value ([3]; Log10 Concentration −4.0) of the same compound?
A: The value was 31%.

Q: And the “Percent Growth” value ([3]; Log10 Concentration −5.0)?
A: Its value is 51%.

Q: And the “Percent Growth” value ([3]; Log10 Concentration −6.0)?
A: Its value is 84%.

Q: What about the “Percent Growth” value ([3]; Log10 Concentration −7.0) of the same compound?
A: The value was 87%.

Q: What about the “Percent Growth” value ([3]; Log10 Concentration −8.0) of the same compound?
A: The value was 90%.

Q: What about the GI50 ([4]; SF-268) of the same compound?
A: The GI50 was 8.29 µM.

Q: And the CC50 ([4]; SF-268, read-out: LC50)?
A: Its CC50 is greater than 100 µM.

Q: And the GI50 ([5]; SK-MEL-2)?
A: The GI50 was 14.9 µM.

Q: What about the CC50 ([5]; SK-MEL-2, read-out: LC50) of the same compound?
A: The CC50 was greater than 100 µM.

Q: What about the TGI [6] of the same compound?
A: Its TGI is greater than 1.00E−4 Molar.

Q: And the “Percent Growth” value ([6]; Log10 Concentration −4.0)?
A: The value was 27%.

Q: And the “Percent Growth” value ([6]; Log10 Concentration −5.0)?
A: The value was 49%.

Q: And the “Percent Growth” value ([6]; Log10 Concentration −6.0)?
A: Its value is 97%.

Q: And the “Percent Growth” value ([6]; Log10 Concentration −7.0)?
A: The value was 100%.

Q: What about the “Percent Growth” value ([6]; Log10 Concentration −8.0) of the same compound?
A: The value was 97%.

Q: And the GI50 [7]?
A: The GI50 was 85.3 µM.

Q: What about the CC50 ([7]; read-out: LC50) of the same compound?
A: Its CC50 is greater than 100 µM.

Q: And the TGI [8]?
A: The TGI was greater than 1.00E−4 Molar.

Q: And the “Percent Growth” value ([8]; Log10 Concentration −4.0)?
A: Its value is 22%.

Q: And the “Percent Growth” value ([8]; Log10 Concentration −5.0)?
A: The value was 65%.

Q: What about the “Percent Growth” value ([8]; Log10 Concentration −6.0) of the same compound?
A: The value was 102%.

Q: And the “Percent Growth” value ([8]; Log10 Concentration −7.0)?
A: The value was 103%.

Q: What about the “Percent Growth” value ([8]; Log10 Concentration −8.0) of the same compound?
A: Its value is 95%.

Q: What about the TGI [9] of the same compound?
A: Its TGI is greater than 1.00E−4 Molar.

Q: And the “Percent Growth” value ([9]; Log10 Concentration −4.0)?
A: The value was 20%.

Q: What about the “Percent Growth” value ([9]; Log10 Concentration −5.0) of the same compound?
A: Its value is 48%.

Q: What about the “Percent Growth” value ([9]; Log10 Concentration −6.0) of the same compound?
A: The value was 98%.

Q: What about the “Percent Growth” value ([9]; Log10 Concentration −7.0) of the same compound?
A: The value was 93%.

Q: And the “Percent Growth” value ([9]; Log10 Concentration −8.0)?
A: The value was 93%.

Q: And the GI50 ([10]; U-251)?
A: The GI50 was 5.66 µM.

Q: What about the CC50 ([10]; U-251, read-out: LC50) of the same compound?
A: The CC50 was greater than 100 µM.

Q: What about the TGI [11] of the same compound?
A: The TGI was 8.31E−5 Molar.

Q: What about the “Percent Growth” value ([11]; Log10 Concentration −4.0) of the same compound?
A: The value was −5%.

Q: What about the “Percent Growth” value ([11]; Log10 Concentration −5.0) of the same compound?
A: Its value is 62%.

Q: What about the “Percent Growth” value ([11]; Log10 Concentration −6.0) of the same compound?
A: Its value is 92%.

Q: What about the “Percent Growth” value ([11]; Log10 Concentration −7.0) of the same compound?
A: Its value is 83%.

Q: What about the “Percent Growth” value ([11]; Log10 Concentration −8.0) of the same compound?
A: Its value is 85%.

Q: And the TGI [12]?
A: The TGI was greater than 1.00E−4 Molar.

Q: What about the “Percent Growth” value ([12]; Log10 Concentration −4.0) of the same compound?
A: Its value is 8%.

Q: And the “Percent Growth” value ([12]; Log10 Concentration −5.0)?
A: The value was 48%.

Q: And the “Percent Growth” value ([12]; Log10 Concentration −6.0)?
A: Its value is 93%.

Q: And the “Percent Growth” value ([12]; Log10 Concentration −7.0)?
A: Its value is 92%.

Q: And the “Percent Growth” value ([12]; Log10 Concentration −8.0)?
A: Its value is 95%.

Q: And the GI50 ([13]; OVCAR-8)?
A: The GI50 was 9.02 µM.

Q: What about the CC50 ([13]; OVCAR-8, read-out: LC50) of the same compound?
A: Its CC50 is greater than 100 µM.

Q: What about the GI50 ([14]; A498) of the same compound?
A: The GI50 was 3.87 µM.

Q: And the CC50 ([14]; A498, read-out: LC50)?
A: Its CC50 is greater than 100 µM.

Q: What about the GI50 ([15]; TK-10) of the same compound?
A: The GI50 was 20.5 µM.

Q: And the CC50 ([15]; TK-10, read-out: LC50)?
A: The CC50 was greater than 100 µM.

Q: What about the TGI [16] of the same compound?
A: The TGI was greater than 1.00E−4 Molar.

Q: And the “Percent Growth” value ([16]; Log10 Concentration −4.0)?
A: The value was 37%.

Q: And the “Percent Growth” value ([16]; Log10 Concentration −5.0)?
A: The value was 40%.

Q: And the “Percent Growth” value ([16]; Log10 Concentration −6.0)?
A: The value was 93%.

Q: And the “Percent Growth” value ([16]; Log10 Concentration −7.0)?
A: Its value is 94%.

Q: And the “Percent Growth” value ([16]; Log10 Concentration −8.0)?
A: The value was 96%.

Q: What about the GI50 ([17]; UACC-257) of the same compound?
A: The GI50 was 22.6 µM.

Q: And the CC50 ([17]; UACC-257, read-out: LC50)?
A: Its CC50 is greater than 100 µM.

Q: What about the GI50 ([18]; UO-31) of the same compound?
A: The GI50 was 7.79 µM.

Q: And the CC50 ([18]; UO-31, read-out: LC50)?
A: The CC50 was greater than 100 µM.

Q: What about the GI50 ([19]; HCT-15) of the same compound?
A: The GI50 was 6.47 µM.

Q: What about the CC50 ([19]; HCT-15, read-out: LC50) of the same compound?
A: Its CC50 is greater than 100 µM.

Q: What about the GI50 [20] of the same compound?
A: The GI50 was 6.37 µM.

Q: And the CC50 ([20]; read-out: LC50)?
A: Its CC50 is greater than 100 µM.

Q: What about the GI50 [21] of the same compound?
A: The GI50 was 11.4 µM.

Q: What about the CC50 ([21]; read-out: LC50) of the same compound?
A: Its CC50 is greater than 100 µM.

Q: What about the TGI [22] of the same compound?
A: Its TGI is greater than 1.00E−4 Molar.

Q: What about the “Percent Growth” value ([22]; Log10 Concentration −4.0) of the same compound?
A: Its value is 47%.

Q: What about the “Percent Growth” value ([22]; Log10 Concentration −5.0) of the same compound?
A: The value was 57%.

Q: What about the “Percent Growth” value ([22]; Log10 Concentration −6.0) of the same compound?
A: The value was 76%.

Q: And the “Percent Growth” value ([22]; Log10 Concentration −7.0)?
A: The value was 72%.

Q: And the “Percent Growth” value ([22]; Log10 Concentration −8.0)?
A: The value was 85%.

Q: What about the TGI [23] of the same compound?
A: The TGI was greater than 1.00E−4 Molar.

Q: What about the “Percent Growth” value ([23]; Log10 Concentration −4.0) of the same compound?
A: Its value is 28%.

Q: And the “Percent Growth” value ([23]; Log10 Concentration −5.0)?
A: The value was 64%.

Q: And the “Percent Growth” value ([23]; Log10 Concentration −6.0)?
A: Its value is 86%.

Q: What about the “Percent Growth” value ([23]; Log10 Concentration −7.0) of the same compound?
A: Its value is 88%.

Q: What about the “Percent Growth” value ([23]; Log10 Concentration −8.0) of the same compound?
A: Its value is 92%.

Q: And the TGI [24]?
A: The TGI was 2.43E−5 Molar.

Q: What about the “Percent Growth” value ([24]; Log10 Concentration −4.0) of the same compound?
A: The value was −43%.

Q: And the “Percent Growth” value ([24]; Log10 Concentration −5.0)?
A: The value was 27%.

Q: What about the “Percent Growth” value ([24]; Log10 Concentration −6.0) of the same compound?
A: Its value is 67%.

Q: And the “Percent Growth” value ([24]; Log10 Concentration −7.0)?
A: The value was 93%.

Q: And the “Percent Growth” value ([24]; Log10 Concentration −8.0)?
A: Its value is 80%.

Q: What about the TGI [25] of the same compound?
A: Its TGI is greater than 1.00E−4 Molar.

Q: What about the “Percent Growth” value ([25]; Log10 Concentration −4.0) of the same compound?
A: Its value is 20%.

Q: What about the “Percent Growth” value ([25]; Log10 Concentration −5.0) of the same compound?
A: Its value is 46%.

Q: What about the “Percent Growth” value ([25]; Log10 Concentration −6.0) of the same compound?
A: Its value is 91%.

Q: What about the “Percent Growth” value ([25]; Log10 Concentration −7.0) of the same compound?
A: The value was 105%.

Q: What about the “Percent Growth” value ([25]; Log10 Concentration −8.0) of the same compound?
A: The value was 98%.

Q: And the GI50 [26]?
A: Its GI50 is greater than 100 µM.

Q: And the CC50 ([26]; read-out: LC50)?
A: Its CC50 is greater than 100 µM.

Q: What about the TGI [27] of the same compound?
A: The TGI was greater than 1.00E−4 Molar.

Q: And the “Percent Growth” value ([27]; Log10 Concentration −4.0)?
A: Its value is 32%.

Q: And the “Percent Growth” value ([27]; Log10 Concentration −5.0)?
A: Its value is 46%.

Q: What about the “Percent Growth” value ([27]; Log10 Concentration −6.0) of the same compound?
A: The value was 82%.

Q: What about the “Percent Growth” value ([27]; Log10 Concentration −7.0) of the same compound?
A: Its value is 89%.

Q: And the “Percent Growth” value ([27]; Log10 Concentration −8.0)?
A: The value was 89%.

Q: And the GI50 ([28]; UACC-62)?
A: The GI50 was 41.9 µM.

Q: What about the CC50 ([28]; UACC-62, read-out: LC50) of the same compound?
A: Its CC50 is greater than 100 µM.
